Legend:
[1] = test system: renal hypertensive rat; assay: Blood pressure lowering effect in renal hypertension; format: in vivo, Sprague-Dawley rat; details: intravenous or oral (not specified)
Description: (§1) To induce renal hypertension, left renal artery of 4 week-old male Sprague-Dawley rat (from The Korea Research Institute of Chemical Technology) was ligated. The rat was anesthetized with ether and the surgical region on the left abdomen of the rat was shaved, disinfected, and then incised about 1 cm vertically. The renal artery near abdominal aorta was isolated carefully from surrounding tissues and veins, and then ligated completely with a suture (4/0 sterile surgical silk). The muscular strata and skin of the surgical area were sutured with a suture (4/0 sterile surgical silk). The surgical region was disinfected to prevent infection and thereafter, 200 to 250 mg/kg/day of cephazolin sodium was injected intramuscularly for 2 days. 6 to 8 days after the ligation, rats showing systolic pressure of more than 180 mmHg were selected for renal hypertension test. The blood pressure was determined by a tail-cuff method from the tail under unanesthetized condition (Gerold, M. et al., Arzneimittel-Forsch., 18, 1285(1968)).
(§2) Each of the compounds to be tested was administered intravenously or orally into the renal hypertensive rat. The blood pressure of the rat was determined by direct method (Chiu, A. T. et al., J. Pharmacol. Exp. Ther., 250, 867(1989)) using a catheter. The rat was anesthetized with ketamine hydrochloride (125 mg/kg, i.p.) and a catheter was filled with saline and inserted into a carotid artery and […]. The surgical area was sutured with a metal clip. The rat was relaxed at least 3 hours and the catheter in the carotid artery was adapted to an isotec pressure transducer to determine the blood pressure and heart rate with a physiograph (Linearcorder WR3310). After the blood pressure was stabilized, the test compound was administered intravenously or orally. For intravenous administration, the administered volume and washing volume were 1.0 ml/kg and 0.2 ml, respectively. The blood pressure and heart rate were measured in regular intervals up to 24 hours after the administration of the test compound and compared with those measured after the administration of the control compound Losartan.
(§3) The test compound was dissolved in 0.05N KOH for intravenous administration and suspended in Tween 80 for oral administration.

[2] = test system: angiotensin II receptor; assay: Angiotensin II receptor binding assay ([3H] angiotensin II); design: species or system rat (Sprague-Dawley adrenal cortex/medulla; Wistar liver); details: 25° C., 60 minutes, test concentration not given
Description: 1. Angiotensin II receptor binding assay
In accordance with the procedure disclosed in Chiu, A. T. et al., Eur. J. Pharm., 157, 13(1981), a ligand marked with a radioisotope was reacted with an angiotensin II receptor and the reactant was filtered with a glass fiber to remove unreacted ligand. After washing the filter, the amount of the remaining isotope was measured to determine the binding activity of the ligand, as described below in detail.
Sprague-Dawley rats and Wistar rats of 250 to 350 g (from The Korea Research Institute of Chemical Technology) were tested and the test procedures were carried out at 4° C., unless otherwise specified. Adrenal gland was separated from the Sprague-Dawley rats (liver, in the case of Wistar rats) into cortex and medulla. The separated adrenal cortex and medulla were washed with a sucrose buffer solution (0.2M sucrose, 1 mM EDTA, 10 mM Tris, Ph 7.2) and homogenized in the same buffer solution by using a Teflon pestle and a Brinkmann homogenizer. The homogenates were centrifuged at 3,000× g for 10 minutes to remove precipitates and further centrifuged at 12,000× g for 13 minutes. The final supernatants were centrifuged at 102,000× g for 1 hour to obtain precipitates, which were washed with a Tris buffer solution (50 mM Tris, 5 mM MgCl2, pH 7.2) and recentrifuged at 102,000× g for 1 hour. The resulting precipitates were immediately processed at the following step or stored at -70° C.
The precipitates were suspended in a Tris buffer solution. The amount of protein was determined by using a Bio-Rad DC protein analyzing kit and the protein concentration was adjusted to the amounts of: 0.2 to 0.3 mg/ml (Sprague-Dawley rat: adrenal cortex), 1.5 to 2.0 mg/ml (Sprague-Dawley rat: adrenal medulla), and 1.5 to 2.0 mg/ml (Wistar rat: liver). To the suspension, bovine serum albumin(BSA) was added to a concentration of 0.25 wt % and the resultant was immediately processed at the following step or stored at -70° C.
50 μl (based on ligand) of [^3 H] angiotensin II (NEN, NET-446) and 10 μl of each of the test compounds with various concentrations were added to the buffer solution (50 mM Tris (pH 7.2), 5 mM MgCl2, 0.25% BSA) to adjust the final volume to be 0.5 ml. 100 μl of the receptor suspension was added thereto and the resulting solution was reacted for 60 minutes while stirring in a water bath at 25° C. 3 ml of cold buffer solution for analysis was added to cease the reaction. The isotope which was bound to the receptor was isolated from the resultant by using Brandel Cell Harvester System with Whatman glass fiber GF/C. After washing the filter, the radioactivity of the filter was determined by using a liquid scintillation counter. Binding inhibition(%) of the test compound was calculated as follows:
Binding Inhibition(%)=[{(T-B)-(S-B)}/(T-B)]×100
wherein T is the radioactivity (cpm) of the reaction product untreated with the test compound, S is the radioactivity (cpm) of the reaction product treated with the test compound, and B is the radioactivity (cpm) of blank test.

[3] = test system: unanesthetized dogs; assay: Maximum blood pressure lowering effect in unanesthetized dogs at different amounts; format: in vivo, dog
Description: (§4) A number of dog was fed freely in a feeding room and those weighing 7 to 12 kg in good health were selected regardless of their gender.
(§5) The test dog was anesthetized with 30 mg/kg of pentobarbital sodium by intravenous injection and the left femoral artery and femoral vein were separated carefully. Silicone catheter, specially prepared and filled with saline treated with heparin (1,000 IU/ml), was cannulated into the blood vessels. After the surgery, the dog was constrained to measure the blood pressure continuously with Gould 2000 physiograph adapted to a Grass P23XL pressure transducer; and the heart rate was monitored with ECG/Biotacho amplifier. The dog was tested at least 2 days after the surgery.
(§6) 10 mg/kg of furosemide was injected intramuscularly 18 hours (in case of intravenous injection, 2 hours) before the beginning of the test (administration of the test compound) to improve the activity of renin in blood plasma. After the injection of furosemide, neither food nor water was provided. The test compound was suspended in Tween 80 and administered in an amount of 20 mg/kg orally. The blood pressure and heart rate were measured up to 8 hours after the administration of each test compound.
The maximum blood pressure lowering effect of the present compounds and the control compounds were determined in different amounts of administration using the same method as (i) and the results are given in Table 4.

[4] = test system: unanesthetized dogs; assay: Blood pressure variation with time in unanesthetized dogs; format: in vivo, dog; details: for Maximum Blood Pressure Lowering Effect: 3 mg, oral
Description: as §4, §5
as §6, with “The test compound was suspended in Tween 80 and administered in an amount of 20 mg/kg orally.” left out

[5] = test system: renal hypertensive rat; assay: Blood pressure lowering effect with respect to dose (renal hypertensive rats); format: in vivo, Sprague-Dawley rat; details: oral
Description: as §1, §2, §3
The present compounds, Losartan(Dup 753) and the Merck compound were administrated orally to rats in 10, 3 and 1 mg/kg under the same condition as in (ii) and the blood pressure lowering effect was determined.

CCCCc1nc2cc(-c3ccc[n+]([O-])c3)c(C)nc2n1Cc1ccc(-c2ccccc2-c2nn[nH]n2)cc1 [Example 6, 2-Butyl-5-methyl-6-(1-oxy-pyridin-3-yl)-3-[2'-(1H-tetrazol-5-yl)-biphenyl-4-ylmethyl]-3H-imidazo[4,5-b]pyridine] was tested, and the “Maximum Blood Pressure Lowering Effect” value ([1]; Amount 3 mg) was -38%, the “Binding Inhibition” value [2] was 94.6% and the “Maximum Blood Pressure Lowering Effect” value ([3]; 0.3 mg/kg) was -9%. For the same molecule, the “Maximum Blood Pressure Lowering Effect” value ([3]; 1 mg/kg) was -12%.
In the case of CCCCc1nc(Cl)c(CO)n1Cc1ccc(-c2ccccc2-c2nn[nH]n2)cc1 [Losartan (Dup 753), Losartan, reference compound], the “Maximum Blood Pressure Lowering Effect” value ([1]; Amount 10 mg) is reported as -27%, the “Binding Inhibition” value [2] is reported as 48.0% and the “Maximum Blood Pressure Lowering Effect” value ([4]; 0.5 hr) is reported as -11.0%. The “Maximum Blood Pressure Lowering Effect” value ([4]; 1 hr) was -12.3%, the “Maximum Blood Pressure Lowering Effect” value ([4]; 2 hr) was -12.8% and the “Maximum Blood Pressure Lowering Effect” value ([4]; 4 hr) was -9.9%. The “Maximum Blood Pressure Lowering Effect” value ([4]; 6 hr) was -10.1%, the “Maximum Blood Pressure Lowering Effect” value ([4]; 8 hr) was -8.2% and the “time for which the maximum blood pressure lowering effect lasted after the administration” value ([4]; Table 3, present compounds 1.0 mg, control compound 3 mg) was “up to 2 hours”. For the same molecule, the “Maximum Blood Pressure Lowering Effect” value ([3]; 3 mg/kg) was -13%, the “Maximum Blood Pressure Lowering Effect” value ([3]; 10 mg/kg) was -23% and the “Maximum Blood Pressure Lowering Effect” value ([5]; 3 mg/kg) was -30%. For the same molecule, the “Maximum Blood Pressure Lowering Effect” value ([5]; 10 mg/kg) was -46%.
CCCCc1nc2cc(-c3cccc[n+]3[O-])c(C(=O)N(CC)CC)nc2n1Cc1ccc(-c2ccccc2-c2nn[nH]n2)cc1 [Example 5, 2-Butyl-6-(1-oxy-pyridin-2-yl)-3-[2'-(1H-tetrazol-5-yl)-biphenyl-4-ylmethyl]-3H-imidazo[4,5-b]pyridin-5-carboxylate Diethylamide] was tested, and the “Binding Inhibition” value [2] was 60.3%.
In the case of CCCCc1nc2cc(-c3cc[n+]([O-])cc3)c(CO)nc2n1Cc1ccc(-c2ccccc2-c2nn[nH]n2)cc1 [Example 2, 2-Butyl-5-hyroxymethyl-6-(1-oxy-pyridin-4-yl)-3-[2'-(1H-tetrazol-5-yl)-biphenyl-4-ylmethyl]-3H-imidazo[4,5-b]pyridine], the “Binding Inhibition” value [2] is reported as 96.9%.
CCCCc1nc2cc(-c3cc[n+]([O-])cc3)c(C)nc2n1Cc1ccc(-c2ccccc2-c2nn[nH]n2)cc1 [Example 7, 2-Butyl-5-methyl-6-(1-oxy-pyridin-4-yl)-3-[2'-(1H-tetrazol-5-yl)-biphenyl-4-ylmethyl]-3H-imidazo[4,5-b]pyridine] was tested, and the “Binding Inhibition” value [2] was 95.5%.
With CCCCc1nc2cc(-c3cccc[n+]3[O-])c(C(=O)OC)nc2n1Cc1ccc(-c2ccccc2-c2nn[nH]n2)cc1 [Example 4, 2-Butyl-5-methoxycarbonyl-6-(1-oxy-pyridin-2-yl)-3-[2'-(1H-tetrazol-5-yl)-biphenyl-4-ylmethyl]-3H-imidazo[4,5-b]pyridine] the “Binding Inhibition” value [2] was 92.1%.

— patent US5691348A, “Pyridyl imidazole derivatives and processes for the preparation thereof” (Daewoo Electronics Co., Ltd., priority 1994, dated 1997)
